The target of one assay is HPK1 (Homo sapiens (Human), UniProt Q92918, S171E/T165E). Nature of the assay: HPK1-FL HTRF Enzymatic Assay ("HTRF"). The format is biochemical. Conditions: HPK full length, ATP 1 mM. As for the experimental part:
HPK1-FL HTRF Enzymatic Assay (“HTRF”)
HPK-FL enzyme phosphorylates Biotin-SLP-76 substrate in the presence of ATP at 1 mM and varying concentrations of test compound. Product is detected by FRET using Eu-anti-pSLP76 Ab and SA-XL665. Also see www.cisbio.com/HTRF for additional HTRF technology information.
Instrumentation: Echo555 compound dispenser; Agilent Bravo; Perkin Elmer Envision.
To a 384 well Proxiplate with 80 nL compound or DMSO spotted on was added 4 μl/well kinase mix. The mixture was preincubated for 30 minutes and then 4 μl/well substrate mix was added. The solution was incubated for 60 min and then 4 μl/well detection mix was added. The solution was incubated for another 60 min. The plates were then loaded onto a
Perkin Elmer Envision and the TR-FRET signal was measured at […] and 665 nm. A ratio of 665/620 was used to calculate the % activity at each concentration of compound.

Assay [1] deals with primary human pan T cells. Nature of the assay: Human T-Cell IL2 Induction Assay. The format is cell-based. Particulars: anti-CD3/anti-CD28 stimulation. As for the experimental part:
Assay Principle: Anti-CD3 and anti-CD28 activates TCR signaling in primary human pan T cells leading to IL-2 promoter induction. Secreted IL-2 in cell culture supernatant is detected by electrochemiluminescence using a capture antibody against IL-2 and an anti-IL-2 antibody labeled with SULFO-tag. Also see www.mesoscale.com for additional electrochemiluminescence technology information.
Assay Procedure: Incubate primary human pan T cells with varying concentrations of test compounds for 30 minutes in a humidified incubator at 37° C. and 5% CO2. Transfer cells to a plate pre-coated with a fixed concentration of anti-human CD3 (determined separately for each donor lot) and add soluble anti-human CD28 (final concentration=1 μg/ml). Stimulate cells in a humidified incubator at 37° C. and 5% CO2 for 4 hours. Transfer 25 μl of supernatant to a MSD single spot plate pre-coated with an anti-human IL-2 antibody. Incubate MSD plate overnight at 4° C. with gentle shaking. Wash MSD plate 4× with wash buffer. Add SULFO-tagged detection antibody at a 1:50 dilution and incubate at room temperature shaking for 2 hours. Wash MSD plate 4× with wash buffer and add 150 μl 2×MSD read buffer. Read on an MSD instrument. Normalize data to stimulated/untreated controls to calculate % activity at each concentration of compound.
• Frozen Primary Human Pan-T Cells (StemCell Technologies #70024) • anti-human CD3 (OKT3 clone) (eBioscience #16-0037-81) • anti-human CD28 (CD28.2 clone) (BD #555725) • 96-well Human IL-2 tissue culture kit (MSD #K151AHB-4) Instrumentation: • Biomek FX for liquid handling (Beckman Coulter) • MSD SECTOR S 600 (Meso Scale Discovery)
Exemplary compounds of Formula (I) were tested in the human T-cell IL-2 induction assays. The % increase measured for IL-2 in cells treated by the test compounds relative to untreated cells are provided in Table B2 for certain compounds.

The values that follow come from patent US12473301B2, “Isoquinoline compounds for the treatment of cancer” (Genentech, Inc., priority 2018, dated 2025).

Chain of HPK1 (Q92918 whole entry T165E/S171E): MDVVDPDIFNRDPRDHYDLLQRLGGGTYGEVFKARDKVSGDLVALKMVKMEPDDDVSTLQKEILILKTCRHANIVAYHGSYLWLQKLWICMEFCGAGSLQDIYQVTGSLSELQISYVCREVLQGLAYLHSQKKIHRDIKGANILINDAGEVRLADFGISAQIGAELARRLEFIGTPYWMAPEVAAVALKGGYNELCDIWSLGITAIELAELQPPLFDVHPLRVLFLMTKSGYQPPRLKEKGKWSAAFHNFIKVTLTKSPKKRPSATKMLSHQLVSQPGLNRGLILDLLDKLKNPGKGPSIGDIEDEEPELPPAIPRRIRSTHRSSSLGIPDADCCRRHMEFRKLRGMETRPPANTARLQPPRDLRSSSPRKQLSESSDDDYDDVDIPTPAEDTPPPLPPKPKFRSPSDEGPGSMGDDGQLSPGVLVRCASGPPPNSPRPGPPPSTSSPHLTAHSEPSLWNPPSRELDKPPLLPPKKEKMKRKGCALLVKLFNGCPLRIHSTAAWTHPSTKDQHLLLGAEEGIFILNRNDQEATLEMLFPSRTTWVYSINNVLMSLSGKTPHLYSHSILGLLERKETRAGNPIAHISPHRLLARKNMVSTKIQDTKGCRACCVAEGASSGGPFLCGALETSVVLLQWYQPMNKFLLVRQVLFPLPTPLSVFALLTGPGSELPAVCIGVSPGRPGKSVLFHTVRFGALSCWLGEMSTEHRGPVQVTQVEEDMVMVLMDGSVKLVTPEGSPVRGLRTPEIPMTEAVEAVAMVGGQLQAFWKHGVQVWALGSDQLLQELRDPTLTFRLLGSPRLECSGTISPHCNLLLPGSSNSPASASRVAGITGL

`CC[C@@H]1[C@H](C(=O)Nc2cc3cc(-c4cnc5c(c4C)NCCO5)c(F)cc3cn2)[C@H]1c1cnn(C)c1` (single isomer, unassigned) [Compound 301c] displayed a Ki on HPK1 of 0.06 nM. For the same molecule, the “% IL-2 increase relative to untreated cells” value in assay [1] (assayed concentration 0.926 μM) came to 232%.
`Cc1c(-c2cc3cc(NC(=O)OC4CC5(CCNCC5)C4)ncc3cc2F)cnc2c1NCCO2` [Compound 113, 7-Azaspiro[3.5]nonan-2-yl (7-fluoro-6-(8-methyl-2,3-dihydro-1H-pyrido[2,3-b][1,4]oxazin-7-yl)isoquinolin-3-yl)carbamate] displayed a Ki on HPK1 of 0.27 nM. Besides, the “% IL-2 increase relative to untreated cells” value in assay [1] (assayed concentration 2.778 μM) came to 702%.
On HPK1, `Cc1c(-c2cc3cc(NC(=O)OC4CC5CC4CN5)ncc3cc2F)cnc2c1NCCO2` (stereo not shown) [Compound 121, 2-Azabicyclo[2.2.1]heptan-5-yl (7-fluoro-6-(8-methyl-2,3-dihydro-1H-pyrido[2,3-b][1,4]oxazin-7-yl)isoquinolin-3-yl)carbamate] displayed a Ki of 8.7 nM.
Take `Cc1c(-c2cc3cc(NC(=O)OCCC4C5CNCC45)ncc3cc2F)cnc2c1NCCO2` (stereo not shown) [Compound 124, 2-(3-Azabicyclo[3.1.0]hexan-6-yl)ethyl (7-fluoro-6-(8-methyl-2,3-dihydro-1H-pyrido[2,3-b][1,4]oxazin-7-yl)isoquinolin-3-yl)carbamate]: the Ki on HPK1 came to 0.44 nM.
In turn, `Cc1c(-c2cc3cc(NC(=O)OC4CC5(CNC5)C4)ncc3cc2F)cnc2c1NCCO2` [Compound 125, 2-Azaspiro[3.3]heptan-6-yl (7-fluoro-6-(8-methyl-2,3-dihydro-1H-pyrido[2,3-b][1,4]oxazin-7-yl)isoquinolin-3-yl)carbamate] came in with an inhibition constant Ki on HPK1 of 0.34 nM. The Ki values of the last two molecules are within 1.5-fold of each other.
Turning to `Cc1c(-c2cc3cc(NC(=O)O[C@H]4[C@@H]5CNC[C@@H]54)ncc3cc2F)cnc2c1NCCO2` [Compound 129a, (1R,5S,6s)-3-Azabicyclo[3.1.0]hexan-6-yl (7-fluoro-6-(8-methyl-2,3-dihydro-1H-pyrido[2,3-b][1,4]oxazin-7-yl)isoquinolin-3-yl)carbamate], the inhibitory constant (Ki) on HPK1 was 0.58 nM.
The same measure, in the same setting: the result for `Cc1c(-c2cc3cc(NC(=O)OC4CS(=O)(=O)C4)ncc3cc2F)cnc2c1NCCO2` [Compound 130, 1,1-Dioxidothientan-3-yl (7-fluoro-6-(8-methyl-2,3-dihydro-1H-pyrido[2,3-b][1,4]oxazin-7-yl)isoquinolin-3-yl)carbamate] reads 4.1 nM; that for `Cc1c(-c2cc3cc(NC(=O)OC4CC5(C4)CN(C)C5)ncc3cc2F)cnc2c1NCCC2` [Compound 132, 2-Methyl-2-azaspiro[3.3]heptan-6-yl (7-fluoro-6-(4-methyl-5,6,7,8-tetrahydro-1,5-naphthyridin-3-yl)isoquinolin-3-yl)carbamate], 1.15 nM.
Regarding `Cc1c(-c2cc3cc(NC(=O)OC4CC5(CCN(C)CC5)C4)ncc3cc2F)cnc2c1NCCC2` [Compound 133, 7-Methyl-7-azaspiro[3.5]nonan-2-yl (7-fluoro-6-(4-methyl-5,6,7,8-tetrahydro-1,5-naphthyridin-3-yl)isoquinolin-3-yl)carbamate], affinity at HPK1 was put at a Ki of 1.07 nM. This Ki and that of the molecule before are within 1.5-fold of each other.
Molecule `Cc1c(-c2cc3cc(NC(=O)OC4CC5(CCNC5)C4)ncc3cc2F)cnc2c1NCCO2` (stereo not shown) [Compound 134, 6-Azaspiro[3.4]octan-2-yl (7-fluoro-6-(8-methyl-2,3-dihydro-1H-pyrido[2,3-b][1,4]oxazin-7-yl)isoquinolin-3-yl)carbamate] registered a Ki on HPK1 of 0.47 nM.
`Cc1c(-c2cc3cc(NC(=O)N[C@H](C)c4cnn(C)c4)ncc3cc2F)cnc2c1NCCO2` [Compound 201a, (R)-1-(7-Fluoro-6-(8-methyl-2,3-dihydro-1H-pyrido[2,3-b][1,4]oxazin-7-yl)isoquinolin-3-yl)-3-(1-(1-methyl-1H-pyrazol-4-yl)ethyl)urea]: the “% IL-2 increase relative to untreated cells” value in assay [1] (assayed concentration 2.778 μM) worked out at 145%.
At HPK1, `Cc1c(-c2cc3cc(NC(=O)NCC4CC4)ncc3cc2F)cnc2c1NCCO2` [Compound 202, 1-(Cyclopropylmethyl)-3-(7-fluoro-6-(8-methyl-2,3-dihydro-1H-pyrido[2,3-b][1,4]oxazin-7-yl)isoquinolin-3-yl)urea] returned an inhibition constant Ki of 0.5 nM.
Molecule `Cc1c(-c2cc3cc(NC(=O)NC4CCOCC4)ncc3cc2F)cnc2c1NCCO2` [Compound 204, 1-(7-Fluoro-6-(8-methyl-2,3-dihydro-1H-pyrido[2,3-b][1,4]oxazin-7-yl)isoquinolin-3-yl)-3-(tetrahydro-2H-pyran-4-yl)urea] gave a Ki on HPK1 of 0.83 nM.
As for `Cc1c(-c2cc3cc(NC(=O)NC4CNC4)ncc3cc2F)cnc2c1NCCO2` [Compound 205, 1-(Azetidin-3-yl)-3-(7-fluoro-6-(8-methyl-2,3-dihydro-1H-pyrido[2,3-b][1,4]oxazin-7-yl)isoquinolin-3-yl)urea], the inhibition constant Ki at HPK1 is 0.76 nM.
On the same count and under the same terms, the result for `Cc1c(-c2cc3cc(NC(=O)NC4CC4)ncc3cc2F)cnc2c1NCCO2` [Compound 207, 1-Cyclopropyl-3-(7-fluoro-6-(8-methyl-2,3-dihydro-1H-pyrido[2,3-b][1,4]oxazin-7-yl)isoquinolin-3-yl)urea] reads 0.2 nM; that for `CC[C@@H]1[C@H](C(=O)Nc2cc3cc(-c4c[n+]([O-])ccc4C)c(F)cc3cn2)[C@H]1c1cnn(C)c1` [Compound 302a, 3-(3-((1S,2S,3S)-2-Ethyl-3-(1-methyl-1H-pyrazol-4-yl)cyclopropane-1-carboxamido)-7-fluoroisoquinolin-6-yl)-4-methylpyridine 1-oxide], 1280 nM; that for `CC[C@H]1[C@H](C(=O)Nc2cc3cc(-c4c[n+]([O-])ccc4C)c(F)cc3cn2)[C@H]1c1cnn(C)c1` [Compound 302b, 3-(3-((1S,2R,3S)-2-Ethyl-3-(1-methyl-1H-pyrazol-4-yl)cyclopropane-1-carboxamido)-7-fluoroisoquinolin-6-yl)-4-methylpyridine 1-oxide], 2000 nM.
